Measured values as given in the supplement of paper PMC10307832.

Legend:
Test in all cases: relative viability (nuclei count vs DMSO), 5 days (fraction); higher = more cells survive
XMD13-2 + Dasatinib = compound: C1CC1C(=O)NC2=NNC3=C2C=CC(=C3)C4=CC(=CC=C4)C(=O)NC5CC5 [XMD13-2] + Cc1nc(Nc2ncc(C(=O)Nc3c(C)cccc3Cl)s2)cc(N2CCN(CCO)CC2)n1 [Dasatinib] (partner 0.075 µM)
Method in brief: (§1)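 Dosing by pin tool came one day after lung cancer cell lines were seeded in 1536-well plates, using either one drug or a fixed anchor-drug dose plus five library-drug doses (not always all listed) in √10 steps. After 5 days, nuclei were counted on 4× images. Relative viability is treated-well nuclei count divided by vehicle-well nuclei count, and values are medians of duplicate plates.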

XMD13-2 + Pictilisib = compound: C1CC1C(=O)NC2=NNC3=C2C=CC(=C3)C4=CC(=CC=C4)C(=O)NC5CC5 [XMD13-2] + CS(=O)(=O)N1CCN(Cc2cc3nc(-c4cccc5[nH]ncc45)nc(N4CCOCC4)c3s2)CC1 [Pictilisib] (partner 1 µM)
Method in brief: as §1

ALW-II-49-7 + Decitabine = compound: Cc1ccc(C(=O)Nc2cccc(C(F)(F)F)c2)cc1Nc1cncc(C(N)=O)c1 [ALW-II-49-7] + Nc1ncn([C@H]2C[C@H](O)[C@@H](CO)O2)c(=O)n1 [Decitabine] (partner 2 µM)
Method in brief: as §1

Dasatinib + Navitoclax = compound: Cc1nc(Nc2ncc(C(=O)Nc3c(C)cccc3Cl)s2)cc(N2CCN(CCO)CC2)n1 [Dasatinib] + CC1(C)CCC(c2ccc(Cl)cc2)=C(CN2CCN(c3ccc(C(=O)NS(=O)(=O)c4ccc(N[C@H](CCN5CCOCC5)CSc5ccccc5)c(S(=O)(=O)C(F)(F)F)c4)cc3)CC2)C1 [Navitoclax] (partner 0.5 µM)
Method in brief: as §1

Cell Line: UMC-11
- relative viability (XMD13-2 + Dasatinib; first compound 0.05 µM): 0.55
- relative viability (XMD13-2 + Dasatinib; first compound 0.1581 µM): 0.428
- relative viability (XMD13-2 + Dasatinib; first compound 0.5 µM): 0.477
- relative viability (XMD13-2 + Dasatinib; first compound 1.581 µM): 0.505
- relative viability (XMD13-2 + Dasatinib; first compound 5 µM): 0.453
- relative viability (XMD13-2 + Pictilisib; first compound 0.05 µM): 0.943
- relative viability (XMD13-2 + Pictilisib; first compound 0.1581 µM): 0.8
- relative viability (XMD13-2 + Pictilisib; first compound 0.5 µM): 0.704
- relative viability (XMD13-2 + Pictilisib; first compound 1.581 µM): 0.803
- relative viability (XMD13-2 + Pictilisib; first compound 5 µM): 0.71
- relative viability (ALW-II-49-7 + Decitabine; first compound 0.08 µM): 0.642
- relative viability (ALW-II-49-7 + Decitabine; first compound 0.253 µM): 0.663
- relative viability (ALW-II-49-7 + Decitabine; first compound 0.8 µM): 0.58
- relative viability (ALW-II-49-7 + Decitabine; first compound 2.53 µM): 0.419
- relative viability (ALW-II-49-7 + Decitabine; first compound 8 µM): 0.552
- relative viability (Dasatinib + Navitoclax; first compound 0.005 µM): 0.308
- relative viability (Dasatinib + Navitoclax; first compound 0.01581 µM): 0.247
- relative viability (Dasatinib + Navitoclax; first compound 0.05 µM): 0.275
- relative viability (Dasatinib + Navitoclax; first compound 0.1581 µM): 0.246
- relative viability (Dasatinib + Navitoclax; first compound 0.5 µM): 0.241
